According to US20250154134A1, “COMPOUND AS FAK INHIBITOR AND USE THEREOF” (WIGEN BIOMEDICINE TECHNOLOGY (SHANGHAI) CO., LTD., priority 2022, published 2025):
Where two headings read alike, the source gives them in different places.

Columns and labels:
PC3 cells [1] = test: PC3 cell proliferation, 3D activity assay (3D culture, 14 days); type: cell-based, human; conditions: Homo sapiens, PC-3, 336 h, read-out: 3D inhibitory activity against PC3 cells IC50
PC3 cells [2] = test: Inhibition of PC3 cell low adsorption (adherent cell count, 4 h); type: cell-based; conditions: Homo sapiens, PC-3; 4 h treatment; read-out: IC50 against PC3 cell low adsorption
Experimental: PC3 cells were seeded at 8000 cells/well. 4 h after the cells were treated with a compound, the number of adherent cells was counted. The inhibition percentage and IC50 of the compound were calculated compared to the DMSO group.

PC3 cells [3] = test: PC3 cell proliferation, 2D activity assay (Cell Titer-Lumi, 72 h); type: cell-based, human; conditions: Homo sapiens, PC-3, read-out: 2D inhibitory activity against PC3 cells IC50
[4] = In vivo pharmacokinetic experiment in CD-1 mice; conditions: mouse, plasma, CD-1 female mice; for Vd: read-out: Vdss
Experimental: […] The mice were fasted for at least 12 h before the administration and given food 4 h after the administration, and they were given ad libitum access to water during the experiment.
On the day of the experiment, animals in the intravenous group were given the corresponding compound by single injection via the tail vein at an administration volume of 10 mL/kg; and animals in the oral group were given the corresponding compound by single intragastric injection at an administration volume of 10 mL/kg. The animals were weighed before administration, and the administration volume was calculated according to the body weight. The sample collection time points were 0.083 h, 0.167 h, 0.5 h, 1 h, 2 h, 4 h, 8 h, and 24 h. About 200 μL of whole blood was collected through the orbital venous plexus at each time point and used to prepare plasma for concentration determination by high-performance liquid chromatography-tandem mass spectrometry (LC-MS/MS). The plasma concentrations were processed using a non-compartmental model of Winnolin pharmacokinetic software, and the pharmacokinetic parameters were calculated using a linear-log trapezoidal method.

[5] = tested on: Human pancreatic cancer Mia PaCa-2 cells; test: In vivo efficacy, Mia PaCa-2 xenograft in nude mice; design: species or system mouse; conditions: MiaPaCa-2 model, 25 mg/kg PO QD 21 days
Experimental: (§1) The groups were as follows: 1) a solvent control group, 8 mice; and 2) a control compound group and a test compound group, 8 mice each. The mice in the solvent control group were intragastrically administered 0.5% CMC-Na twice a day; the mice in the compound groups were intragastrically administered 0.50% MC-Tween-80 suspension once a day. On Tuesday and Thursday each week, tumor volumes and body weight of the mice were measured, and the nude mice were sacrificed on day 21 after the administration. […] The toxicity of the compounds was evaluated according to the body weight of the mice.

FAK recombinant protein = FAK recombinant protein (Homo sapiens (Human), UniProt Q05397); test: Inhibitory activity against FAK enzyme (HTRF, TK substrate); type: biochemical
Experimental: A compound serially diluted with DMSO was mixed with a FAK recombinant protein. After the mixture was left to stand at room temperature for 10 min, a biotin-labeled TK substrate (TK) and ATP were added. […] The inhibition percentage and IC50 of the compound were calculated compared to the DMSO control group.

[6] = tested on: Human prostate cancer PC3 cells; test: In vivo efficacy, PC3 xenograft in nude mice; design: species or system mouse; conditions: PC-3 model, 25 mg/kg, QD (21 days), PO
Experimental: as §1, with “0.5%” for “0.50%”

[7] = tested on: phosphorylation at the FAK 397 site; test: Inhibition of Y397 phosphorylation in PC3 cells (ELISA); type: cell-based; conditions: Homo sapiens, PC-3, 3 h treatment, read-out: IC50 against Y397 phosphorylation
Experimental: PC3 cells were seeded at 8000 cells/well. […] The inhibition percentage and IC50 of the compound were calculated compared to the DMSO group.

[8] = intravenous, injection (1 mg/kg)

FAK recombinant protein, sequence (Q05397 whole entry): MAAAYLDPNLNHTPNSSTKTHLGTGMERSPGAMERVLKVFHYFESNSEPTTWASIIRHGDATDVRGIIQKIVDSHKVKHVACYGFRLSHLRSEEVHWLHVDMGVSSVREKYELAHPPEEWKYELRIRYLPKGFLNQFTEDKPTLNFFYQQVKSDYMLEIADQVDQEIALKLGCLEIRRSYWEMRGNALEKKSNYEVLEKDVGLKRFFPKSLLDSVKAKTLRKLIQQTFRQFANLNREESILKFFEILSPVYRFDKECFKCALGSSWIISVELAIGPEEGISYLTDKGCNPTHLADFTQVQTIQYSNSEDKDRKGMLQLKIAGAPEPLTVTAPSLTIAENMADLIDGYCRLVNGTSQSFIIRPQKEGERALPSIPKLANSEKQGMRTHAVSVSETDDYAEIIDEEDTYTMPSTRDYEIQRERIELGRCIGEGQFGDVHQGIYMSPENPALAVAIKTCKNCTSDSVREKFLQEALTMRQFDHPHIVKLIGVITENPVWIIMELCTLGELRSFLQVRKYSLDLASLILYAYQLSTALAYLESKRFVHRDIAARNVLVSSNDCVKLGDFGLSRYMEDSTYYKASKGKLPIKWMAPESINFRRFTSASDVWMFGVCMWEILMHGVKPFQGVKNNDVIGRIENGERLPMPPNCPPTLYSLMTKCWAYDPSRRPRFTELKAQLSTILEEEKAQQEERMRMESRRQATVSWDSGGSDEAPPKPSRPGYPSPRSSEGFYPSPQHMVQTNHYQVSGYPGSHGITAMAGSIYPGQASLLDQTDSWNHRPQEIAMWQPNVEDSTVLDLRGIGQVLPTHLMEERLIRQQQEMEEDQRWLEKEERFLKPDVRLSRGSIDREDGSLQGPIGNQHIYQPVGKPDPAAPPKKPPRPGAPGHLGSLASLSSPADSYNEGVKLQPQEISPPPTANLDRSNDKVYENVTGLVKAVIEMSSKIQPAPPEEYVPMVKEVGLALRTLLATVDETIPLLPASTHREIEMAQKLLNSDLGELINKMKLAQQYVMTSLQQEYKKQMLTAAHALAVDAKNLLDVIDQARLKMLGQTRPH

Row | IC50 (PC3 cells [1]) | IC50 (PC3 cells [2]) | IC50 (PC3 cells [3]) | AUC(0-t) [4, 8] | clearance [4, 8] | half-life [4, 8] | Vd [4, 8] | AUC(0-t) ([4]; oral administration (10 mg/kg)) | Cmax ([4]; oral administration (10 mg/kg)) | Tmax ([4]; oral administration (10 mg/kg)) | bioavailability ([4]; oral administration (10 mg/kg)) | IC50 (FAK recombinant protein) | IC50 [7] | AUC(0-t) ([4]; iv, injection (1 mg/kg)) | clearance ([4]; iv, injection (1 mg/kg)) | half-life ([4]; iv, injection (1 mg/kg)) | Vd ([4]; iv, injection (1 mg/kg)) | half-life ([4]; oral administration (10 mg/kg)) | Compound | TGI(%) [5] | TGI(%) [6]
1 | 0.45 nM | 3.14 nM | > 2000 nM | 248 ng·h/mL | 67.1 mL/min/kg | 2.14 h | 6.14 L/kg | 190 ng·h/mL | 57.2 ng/mL | 4 h | 7.94% |  |  |  |  |  |  |  | COc1cc(C(=O)NC2CCN(C)CC2)ccc1Nc1ncc(C(F)(F)F)c(Oc2cccc3c2C(=O)N(C)C32CC2)n1 [Compound 3, 3-methoxy-4-((4-((2′-methyl-3′-oxospiro[cyclopropane-1,1′-isoindolin]-4′-yl)oxy)-5-(trifluoromethyl)pyrimidin-2-yl)amino)-N-(1-methylpiperidin-4-yl)benzamide] |  | 
2 | 2.01 nM | 6.87 nM | > 2000 nM |  |  |  |  | 2090 ng·h/mL | 361 ng/mL | 4 h | 42.6% | < 20 nM | 0.025 nM | 489 ng·h/mL | 34 mL/min/kg | 1.78 h | 4.35 L/kg |  | COc1cc(C(=O)NC2CCN(C)CC2)c(F)cc1Nc1ncc(C(F)(F)F)c(Oc2cccc3c2C(=O)N(C)C32CC2)n1 [Compound 4] | 69.02% | 61.48%
3 | 1.99 nM | 5.01 nM | > 10000 nM |  |  |  |  | 2890 ng·h/mL | 624 ng/mL | 0.5 h | 59.3% | < 20 nM | 0.028 nM | 414 ng·h/mL | 40.2 mL/min/kg | 1.93 h | 5.67 L/kg | 3.32 h | COc1cc(N2CCN(C)CC2)ccc1Nc1ncc(C(F)(F)F)c(Oc2cccc3c2C(=O)N(C)C32CC2)n1 [Compound 73] |  | 74.07%
4 | 0.78 nM | 5.83 nM | > 10000 nM |  |  |  |  |  |  |  |  | < 20 nM | < 0.01 nM |  |  |  |  |  | COc1cc(N2CCC(N3CCN(C)CC3)CC2)ccc1Nc1ncc(C(F)(F)F)c(Oc2cccc3c2C(=O)N(C)C32CC2)n1 [Compound 78] |  | 
5 | 5 to 50 nM | 36.2 nM | > 10000 nM |  |  |  |  |  |  |  |  | < 20 nM |  |  |  |  |  |  | CN1Cc2cc(Nc3ncc(C(F)(F)F)c(Oc4cccc5c4C(=O)N(C)C54CC4)n3)cc3c2C(CCO3)C1 (stereo not drawn) [Compound 89] |  | 
6 | 5 to 50 nM | 36.4 nM | > 2000 nM |  |  |  |  |  |  |  |  | < 20 nM |  |  |  |  |  |  | Cc1cc(Nc2ncc(C(F)(F)F)c(Oc3cccc4c3C(=O)N(C)C43CC3)n2)n(C(C)C)n1 [Compound 91] |  | 
7 | 5 to 50 nM | 62 nM | > 2000 nM |  |  |  |  |  |  |  |  | < 20 nM |  |  |  |  |  |  | CN1C(=O)c2c(Oc3nc(Nc4cc5n(n4)CCC5)ncc3C(F)(F)F)cccc2C12CC2 [Compound 92, 4′-((2-((5,6-dihydro-4H-pyrrolo[1,2-b]pyrazol-2-yl)amino)-5-(trifluoromethyl)pyrimidin-4-yl)oxy)-2′-methylspiro[cyclopropane-1,1′-isoindolin]-3′-one] |  | 
8 | 1.09 nM | 2.85 nM | > 2000 nM |  |  |  |  |  |  |  |  | < 20 nM | 0.39 nM |  |  |  |  |  | COc1cc(C(=O)NC2CCN(C)CC2)ccc1Nc1ncc(Cl)c(Oc2cccc3c2C(=O)N(C)C32CC2)n1 [Compound 114, 4-((5-chloro-4-((2′-methyl-3′-oxospiro[cyclopropane-1,1′-isoindolin]-4′-yl)oxy)pyrimidin-2-yl)amino)-3-methoxy-N-(1-methylpiperidin-4-yl)benzamide] |  | 
9 | 5 to 50 nM | 4.6 nM | > 2000 nM |  |  |  |  | 7850 ng·h/mL | 822 ng/mL | 2 h | 123% | < 20 nM | 0.7 nM | 640 ng·h/mL | 26.1 mL/min/kg | 1.81 h | 3.47 L/kg | 2.22 h | COc1cc(C(=O)NC2CCN(C)CC2)c(F)cc1Nc1ncc(Cl)c(Oc2cccc3c2C(=O)N(C)C32CC2)n1 [Compound 117] | 62.86% | 
10 | < 5 nM | 7.2 nM | > 2000 nM |  |  |  |  |  |  |  |  | < 20 nM |  |  |  |  |  |  | COc1cc(N2CCC(N3CCN(C)CC3)CC2)c(F)cc1Nc1ncc(C(F)(F)F)c(Oc2cccc3c2C(=O)N(C)C32CC2)n1 [Compound 121, 4′-((2-((5-fluoro-2-methoxy-4-(4-(4-methylpiperazin-1-yl)piperidin-1-yl)phenyl)amino)-5-(trifluoromethyl)pyrimidin-4-yl)oxy)-2′-methylspiro[cyclopropane-1,1′-isoindolin]-3′-one] |  | 
11 | 1.7 nM | 5.2 nM | > 2000 nM |  |  |  |  |  |  |  |  | < 20 nM | 0.56 nM |  |  |  |  |  | COc1cc(N2CCC(N3CCN(C)CC3)CC2)ccc1Nc1ncc(Cl)c(Oc2cccc3c2C(=O)N(C)C32CC2)n1 [Compound 139] |  | 
12 | 5 to 50 nM | 13.9 nM | > 2000 nM |  |  |  |  |  |  |  |  | < 20 nM |  |  |  |  |  |  | COc1cc(N2CCN(C)CC2)ccc1Nc1ncc(Cl)c(Oc2cccc3c2C(=O)N(C)C32CC2)n1 [Compound 141] |  | 
13 | 5 to 50 nM | 6.9 nM | > 2000 nM |  |  |  |  |  |  |  |  | < 20 nM |  |  |  |  |  |  | COc1cc(CN(C)C2CCN(C)CC2)ccc1Nc1ncc(Cl)c(Oc2cccc3c2C(=O)N(C)C32CC2)n1 [Compound 154] |  | 
14 | 0.38 nM | 1.86 nM | > 2000 nM |  |  |  |  | 7450 ng·h/mL | 815 ng/mL | 2 h | 67% | < 20 nM | 0.02 nM | 1110 ng·h/mL | 15 mL/min/kg | 5.89 h | 7.51 L/kg | 3.37 h | COc1cc(N2CC3(CCN(C)CC3)C2)ccc1Nc1ncc(Br)c(Oc2cccc3c2C(=O)N(C)C32CC2)n1 [Compound 177, 4′-((5-bromo-2-((2-methoxy-4-(7-methyl-2,7-diazaspiro[3.5]nonan-2-yl)phenyl)amino)pyrimidin-4-yl)oxy)-2′-methylspiro[cyclopropane-1,1′-isoindolin]-3′-one] |  | 
15 | 0.38 nM | 6.22 nM | > 2000 nM |  |  |  |  |  |  |  |  | < 20 nM |  |  |  |  |  |  | COc1cc(N2CC3(CCN(C)CC3)C2)c(F)cc1Nc1ncc(Br)c(Oc2cccc3c2C(=O)N(C)C32CC2)n1 [Compound 178] | 82.41% | 
16 | 0.33 nM | 1.6 nM | > 2000 nM |  |  |  |  |  |  |  |  | < 20 nM | 0.05 nM |  |  |  |  |  | COc1cc(N2CC3(CCN(C)CC3)C2)ccc1Nc1ncc(C#N)c(Oc2cccc3c2C(=O)N(C)C32CC2)n1 [Compound 196, 2-((2-methoxy-4-(7-methyl-2,7-diazaspiro[3.5]nonan-2-yl)phenyl)amino)-4-((2′-methyl-3′-oxospiro[cyclopropane-1,1′-isoindolin]-4′-yl)oxy)pyrimidine-5-carbonitrile] |  | 
17 | 2.42 nM | 1.67 nM | > 2000 nM |  |  |  |  |  |  |  |  | < 20 nM |  |  |  |  |  |  | COc1cc(N2CC3(CCN(C)CC3)C2)c(F)cc1Nc1ncc(C#N)c(Oc2cccc3c2C(=O)N(C)C32CC2)n1 [Compound 197] |  | 
